How the values were obtained:
corn [1] = assay: Test B pre-/postemergence herbicide test; type: in vivo, Zea mays
Method in brief: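 Herbicidal effect was judged by eye on a 0–100 scale after plants stood 13 to 15 days in the greenhouse following pre- or postemergence treatment with surfactant-containing formulations.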

wild oat = assay: Test B postemergence herbicide test; type: in vivo, Avena fatua; conditions: scale 0 (no effect) to 100 (complete control); for Plant response rating, Oat, Wild: Postemergence, 500 g ai/ha, visual rating after 13 to 15 days; for Oat, Wild plant response rating: postemergence, 125 g ai/ha, visual rating
Method in brief: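 Read-out: visual comparison with controls, scored 0 to 100, where 100 means complete control and 0 no effect. Formulated chemicals were applied postemergence to plants 2–18 cm tall (1- to 4-leaf), or to flooded-paddy plants at the 2-leaf stage, then held 13 to 15 days under glass.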

Surinam grass = assay: Test C pre-/postemergence herbicide test; type: in vivo, Urochloa decumbens; conditions: for Surinam Grass plant response rating: 500 g ai/ha
Method in brief: (§1)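 Visual injury scores run from 0 (no effect) to 100 (complete control), assessed relative to untreated controls 12 to 14 days after treatment in the greenhouse. Chemicals were formulated in a non-phytotoxic solvent mixture with surfactant and applied to soil after planting or to emerged plants at the 1- to 4-leaf stage.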

corn [2] = assay: Test C pre-/postemergence herbicide test; type: in vivo, Zea mays; conditions: for Corn plant response rating: 500 g ai/ha
Method in brief: as §1

large crabgrass = assay: Test C pre-/postemergence herbicide test; type: in vivo, Digitaria sanguinalis; conditions: for Crabgrass, Large plant response rating: 500 g ai/ha
Method in brief: as §1

johnsongrass = assay: Test C pre-/postemergence herbicide test; type: in vivo, Sorghum halepense; conditions: for Johnsongrass plant response rating: 500 g ai/ha
Method in brief: as §1

yellow nutsedge = assay: Test C pre-/postemergence herbicide test; type: in vivo, Cyperus esculentus; conditions: for Nutsedge, Yellow plant response rating: 500 g ai/ha
Method in brief: as §1

pigweed = assay: Test C pre-/postemergence herbicide test; type: in vivo, Amaranthus retroflexus; conditions: for Pigweed plant response rating: 500 g ai/ha
Method in brief: as §1

soybean = assay: Test C pre-/postemergence herbicide test; type: in vivo, Glycine max; conditions: for Soybean plant response rating: 500 g ai/ha
Method in brief: as §1

velvetleaf = assay: Test C pre-/postemergence herbicide test; type: in vivo, Abutilon theophrasti; conditions: for Velvetleaf plant response rating: 500 g ai/ha
Method in brief: as §1

[3] = Postemergence, 500 g ai/ha, visual rating after 13 to 15 days, scale 0 (no effect) to 100 (complete control)
[4] = Preemergence, 500 g ai/ha, scale 0 to 100
[5] = postemergence, 125 g ai/ha, visual rating, scale 0 (no effect) to 100 (complete control)
[6] = preemergence, 125 g ai/ha, 0 to 100 scale, 0 is no effect, 100 is complete control
[7] = Postemergence, 250 g ai/ha, scale 0 to 100, 0 no effect, 100 complete control
[8] = postemergence, 125 g ai/ha, scale 0 to 100
[9] = postemergence, 62 g ai/ha, scale 0 to 100
[10] = Preemergence, scale 0 to 100, 0 no effect, 100 complete control
[11] = 125 g ai/ha, scale 0 (no effect) to 100 (complete control), visual, 12 to 14 days, preemergence
[12] = 250 g ai/ha, scale 0 to 100 (0 no effect, 100 complete control), visual, 12 to 14 days, preemergence

## C#CCOC(=O)c1cccc(NC(=O)c2cc(C(C)(C)C)nn2CC)c1 [Compound 84]
Corn [1]; [3]
  Plant response rating, Corn: 20
Corn [1]; [4]
  Corn plant response rating: 0
Corn [1]; [5]
  Corn plant response rating: 10
Corn [1]; [6]
  Plant response rating, Corn: 0
Wild oat
  Plant response rating, Oat, Wild: 20
  Oat, Wild plant response rating: 20
Surinam grass; Postemergence, scale 0 to 100
  Surinam Grass plant response rating: 10
Surinam grass; [7]
  Plant response rating, Surinam Grass: 0
Surinam grass; [8]
  Plant response rating, Surinam Grass: 0
Surinam grass; [9]
  Plant response rating, Surinam Grass: 0
Corn [2]; Postemergence, scale 0 to 100
  Corn plant response rating: 0
Corn [2]; [7]
  Plant response rating, Corn: 0
Corn [2]; [8]
  Plant response rating, Corn: 0
Corn [2]; [9]
  Plant response rating, Corn: 0
Large crabgrass; Postemergence, scale 0 to 100
  Crabgrass, Large plant response rating: 50
Large crabgrass; [7]
  Plant response rating, Crabgrass, Large: 0
Large crabgrass; [8]
  Plant response rating, Crabgrass, Large: 0
Large crabgrass; [9]
  Plant response rating, Crabgrass, Large: 0
johnsongrass; Postemergence, scale 0 to 100
  Johnsongrass plant response rating: 0
johnsongrass; [7]
  Plant response rating, Johnsongrass: 0
johnsongrass; [8]
  Plant response rating, Johnsongrass: 0
johnsongrass; [9]
  Plant response rating, Johnsongrass: 0
Yellow nutsedge; Postemergence, scale 0 to 100
  Nutsedge, Yellow plant response rating: 0
Yellow nutsedge; [7]
  Plant response rating, Nutsedge, Yellow: 0
Yellow nutsedge; [8]
  Plant response rating, Nutsedge, Yellow: 0
Yellow nutsedge; [9]
  Plant response rating, Nutsedge, Yellow: 0
pigweed; Postemergence, scale 0 to 100
  Pigweed plant response rating: 100
pigweed; [7]
  Plant response rating, Pigweed: 100
pigweed; [8]
  Plant response rating, Pigweed: 100
pigweed; [9]
  Plant response rating, Pigweed: 100
soybean; Postemergence, scale 0 to 100
  Soybean plant response rating: 20
soybean; [7]
  Plant response rating, Soybean: 20
soybean; [8]
  Plant response rating, Soybean: 0
soybean; [9]
  Plant response rating, Soybean: 0
velvetleaf; Postemergence, scale 0 to 100
  Velvetleaf plant response rating: 0
velvetleaf; [7]
  Plant response rating, Velvetleaf: 0
velvetleaf; [8]
  Plant response rating, Velvetleaf: 0
velvetleaf; [9]
  Plant response rating, Velvetleaf: 0

## C=CCOC(=O)c1cccc(NC(=O)c2cc(C(C)(C)C)nn2CC)c1 [Compound 85]
Corn [1]; [3]
  Plant response rating, Corn: 30
Corn [1]; [4]
  Corn plant response rating: 0
Corn [1]; [5]
  Corn plant response rating: 20
Corn [1]; [6]
  Plant response rating, Corn: 0
Wild oat
  Plant response rating, Oat, Wild: 50
  Oat, Wild plant response rating: 20
Surinam grass; Postemergence, scale 0 to 100
  Surinam Grass plant response rating: 80
Surinam grass; [7]
  Plant response rating, Surinam Grass: 80
Surinam grass; [8]
  Plant response rating, Surinam Grass: 30
Surinam grass; [9]
  Plant response rating, Surinam Grass: 25
Corn [2]; Postemergence, scale 0 to 100
  Corn plant response rating: 45
Corn [2]; [7]
  Plant response rating, Corn: 35
Corn [2]; [8]
  Plant response rating, Corn: 30
Corn [2]; [9]
  Plant response rating, Corn: 30
Large crabgrass; Postemergence, scale 0 to 100
  Crabgrass, Large plant response rating: 40
Large crabgrass; [7]
  Plant response rating, Crabgrass, Large: 10
Large crabgrass; [8]
  Plant response rating, Crabgrass, Large: 5
Large crabgrass; [9]
  Plant response rating, Crabgrass, Large: 0
johnsongrass; Postemergence, scale 0 to 100
  Johnsongrass plant response rating: 80
johnsongrass; [7]
  Plant response rating, Johnsongrass: 20
johnsongrass; [8]
  Plant response rating, Johnsongrass: 10
johnsongrass; [9]
  Plant response rating, Johnsongrass: 10
Yellow nutsedge; Postemergence, scale 0 to 100
  Nutsedge, Yellow plant response rating: 40
Yellow nutsedge; [7]
  Plant response rating, Nutsedge, Yellow: 20
Yellow nutsedge; [8]
  Plant response rating, Nutsedge, Yellow: 20
Yellow nutsedge; [9]
  Plant response rating, Nutsedge, Yellow: 10
pigweed; Postemergence, scale 0 to 100
  Pigweed plant response rating: 100
pigweed; [7]
  Plant response rating, Pigweed: 100
pigweed; [8]
  Plant response rating, Pigweed: 100
pigweed; [9]
  Plant response rating, Pigweed: 100
soybean; Postemergence, scale 0 to 100
  Soybean plant response rating: 95
soybean; [7]
  Plant response rating, Soybean: 80
soybean; [8]
  Plant response rating, Soybean: 60
soybean; [9]
  Plant response rating, Soybean: 55
velvetleaf; Postemergence, scale 0 to 100
  Velvetleaf plant response rating: 85
velvetleaf; [7]
  Plant response rating, Velvetleaf: 80
velvetleaf; [8]
  Plant response rating, Velvetleaf: 75
velvetleaf; [9]
  Plant response rating, Velvetleaf: 60

## CC(=NO)c1cccc(NC(=O)c2cc(C(C)(C)C)nn2C)c1 [Compound 102]
Corn [1]; 500 g ai/ha, visual rating 0-100, 0 no effect, 100 complete control, preemergence
  Plant response rating, Corn: 50
Corn [1]; [3]
  Plant response rating, Corn: 40
Corn [1]; [5]
  Corn plant response rating: 20
Corn [1]; [6]
  Plant response rating, Corn: 0
Wild oat
  Plant response rating, Oat, Wild: 40
  Oat, Wild plant response rating: 20
Surinam grass; 62 g ai/ha, preemergence
  Plant response rating (0 = no effect, 100 = complete control), Surinam Grass: 0
Surinam grass; [10]
  Surinam Grass plant response rating: 50
Corn [2]; 62 g ai/ha, preemergence
  Plant response rating (0 = no effect, 100 = complete control), Corn: 0
Corn [2]; [11]
  Plant response rating, Corn: 0
Corn [2]; [12]
  Plant response rating, Corn: 10
Corn [2]; [10]
  Corn plant response rating: 30
Large crabgrass; 62 g ai/ha, preemergence
  Plant response rating (0 = no effect, 100 = complete control), Crabgrass, Large: 100
Large crabgrass; [11]
  Plant response rating, Crabgrass, Large: 100
Large crabgrass; [12]
  Plant response rating, Crabgrass, Large: 100
Large crabgrass; [10]
  Crabgrass, Large plant response rating: 100
johnsongrass; 62 g ai/ha, preemergence
  Plant response rating (0 = no effect, 100 = complete control), Johnsongrass: 50
johnsongrass; [11]
  Plant response rating, Johnsongrass: 80
johnsongrass; [10]
  Johnsongrass plant response rating: 100
Yellow nutsedge; 62 g ai/ha, preemergence
  Plant response rating (0 = no effect, 100 = complete control), Nutsedge, Yellow: 0
Yellow nutsedge; [11]
  Plant response rating, Nutsedge, Yellow: 0
Yellow nutsedge; [10]
  Nutsedge, Yellow plant response rating: 30
pigweed; 62 g ai/ha, preemergence
  Plant response rating (0 = no effect, 100 = complete control), Pigweed: 90
pigweed; [11]
  Plant response rating, Pigweed: 100
pigweed; [10]
  Pigweed plant response rating: 100
soybean; 62 g ai/ha, preemergence
  Plant response rating (0 = no effect, 100 = complete control), Soybean: 0
soybean; [11]
  Plant response rating, Soybean: 0
soybean; [10]
  Soybean plant response rating: 20
velvetleaf; [11]
  Plant response rating, Velvetleaf: 20
velvetleaf; [10]
  Velvetleaf plant response rating: 60

— patent US20060069132A1, “Azolecarboxamide herbicides” (priority 2004, published 2006)
